Test [1] has as its system HCT-116 (colon cancer). The test is described as follows: MTT cell viability assay, HCT-116. The format is cell-based, human. The conditions noted are these: for IC50: MTT assay, 72 h of incubation; for Selectivity Index (SI) HCT-116: IC50 value toward HaCaT cells/IC50 value toward HCT-116. How it is done: (§1) Analysis was performed using an MTT assay after 72 h of incubation.
(§2) All chemicals, if not stated otherwise, were obtained from Sigma–Aldrich (St. Louis, MO, USA). The HCT-116 cell line was purchased from ATCC (ATCC-No: CCL-247), while the MCF-7, HeLa and HaCaT cell lines were purchased from Cell Lines Services (Eppelheim, Germany). Cells were cultured in Dulbecco’s modified Eagle’s medium (DMEM) supplemented with 10% fetal bovine serum, 2 mM glutamine, 100 units/mL penicillin and 100 µg/mL streptomycin. Cultures were maintained in a humidified atmosphere with 5% carbon dioxide at 37 °C in an incubator (Heraceus, HeraCell).
(§3) Cell viability was examined using the MTT [3-(4,5-dimethylthiazol-2-yl)-2,5-diphenyltetrazolium bromide] assay. Cells were seeded in 96-well plates at a density of 3 × 10^3 cells/well and treated for 72 h with the tested compounds in the concentration range of 1–100 µM. Then, MTT (0.5 mg/mL) was added to the medium and cells were further incubated for 2 h at 37 °C. In the next stage, cells were lysed with DMSO and the absorbance of the formazan solution was measured at 550 nm with a plate reader (1420 multilabel counter, Victor, Jügesheim, Germany). The experiment was performed in triplicate. Values are expressed as the mean ± SD of at least three independent experiments.
In general terms: Tetrazolium assays rely on reduction of a dye to a coloured formazan, in cell work by metabolically active cells.

Test [2] deals with MCF-7 (breast cancer). The test is described as follows: MTT cell viability assay, MCF-7. The format is cell-based, human. The conditions noted are these: for IC50: Homo sapiens, MCF7, 72 h, MTT assay, 72 h of incubation; for Selectivity Index (SI) MCF-7: IC50 value toward HaCaT cells/IC50 value toward MCF-7. How it is done:
(§4) Compounds 20–162 were evaluated in vitro for their effects on the viability of three cancer cell lines: HCT-116 (colon cancer), MCF-7 (breast cancer) and HeLa (cervical cancer), as well as the non-cancerous keratinocyte cell line (HaCaT). […] Analysis was performed using an MTT assay after 72 h of incubation.
as §2
as §3, with “experiments. Cisplatin was used as a positive control.” for “experiments.”

Test [3] has as its system HeLa (cervical cancer). Briefly: MTT cell viability assay, HeLa. The format is cell-based, human. Particulars: for IC50: Homo sapiens, HeLa, MTT assay, 72 h of incubation; for Selectivity Index (SI) HeLa: IC50 value toward HaCaT cells/IC50 value toward HeLa. Here is the method:
as §1, §2, §3

The subject of test [4] is HaCaT (human keratinocyte cell line). Briefly: MTT cell viability assay, non-cancerous HaCaT. The format is cell-based. Particulars: Homo sapiens, HaCaT, 72 h, 72 h of incubation, non-cancerous keratinocytes. Here is the method: as §4, §2
as §3, with “experiments. Cisplatin was used as a positive control.” for “experiments.”

As a reminder, the IC50 is the concentration needed to halve the response being measured. Read a high IC50 as lower potency.

In the case of `Cc1cc(S(=O)(=O)N=C2NCCN2)c(SCc2nc(N)nc(N3CCN(Cc4ccccc4)CC3)n2)cc1Cl` [Compound 42], the IC50 worked out at 31 ± 1 µM in test [1] (Homo sapiens, HCT-116, 72 h); 31 ± 2 µM in test [2]; 30 ± 1.5 µM in test [3]; 61 ± 4 µM in test [4].
The matching figures for `Cc1cc(S(=O)(=O)N=C2NCCN2Cc2ccc(F)cc2)c(SCc2nc(N)nc(N3CCN(c4ccc(F)c(Cl)c4)CC3)n2)cc1Cl` [Compound 99]: 17 ± 1 µM, 17 ± 1 µM, 18 ± 0.5 µM and 30 ± 1 µM.
Consider `Cc1cc(S(=O)(=O)N=C2NCCN2Cc2ccc(C(F)(F)F)cc2)c(SCc2nc(N)nc(N3CCC(Cc4ccccc4)CC3)n2)cc1Cl` [Compound 142], for which the IC50 was 4.6 ± 0.1 µM in test [1] (Homo sapiens, HCT-116, 72 h); 6.5 ± 0.3 µM in test [2]; 14 ± 0.2 µM in test [3]; 29 ± 1 µM in test [4].
The like results for `Cc1cc(S(=O)(=O)N=C2NCCN2Cc2cccc3ccccc23)c(SCc2nc(N)nc(N3CCN(c4ccc(C(F)(F)F)cc4)CC3)n2)cc1Cl` [Compound 78] were, in that order, 19.5 ± 0.6 µM, 11 ± 0.5 µM, 130 ± 8 µM and 280 ± 14 µM.
The matching figures for `COc1ccc(N2CCN(c3nc(N)nc(CSc4cc(Cl)c(C)cc4S(=O)(=O)N=C4NCCN4Cc4cccc(C(F)(F)F)c4)n3)CC2)cc1` [Compound 116]: 6 ± 0.2 µM, 8.5 ± 0.3 µM, 17 ± 1 µM and 31 ± 2 µM.
`COc1ccc(N2CCN(c3nc(N)nc(CSc4cc(Cl)c(C)cc4S(=O)(=O)N=C4NCCN4)n3)CC2)cc1` [Compound 40]: the IC50 in test [1] (Homo sapiens, HCT-116, 72 h) is 21 ± 0.5 µM; in test [2], 28 ± 2 µM; in test [3] it was 23 ± 1 µM; in test [4] it was 45 ± 3 µM.
The matching figures for `Cc1cc(S(=O)(=O)N=C2NCCN2Cc2cccc3ccccc23)c(SCc2nc(N)nc(N3CCc4ccccc43)n2)cc1Cl` [Compound 74]: 44 ± 2 µM, 12 ± 0.6 µM, 13 ± 0.5 µM and 81 ± 4 µM.
`Cc1cc(S(=O)(=O)N=C2NCCN2Cc2ccccc2)c(SCc2nc(N)nc(N(C)c3ccc(Cl)cc3)n2)cc1Cl` [Compound 55]: the IC50 in test [1] (Homo sapiens, HCT-116, 72 h) turned out to be 7 ± 0.1 µM; in test [2], 10 ± 0.2 µM; in test [3] it was 13 ± 0.1 µM; in test [4], 39 ± 2 µM. In addition, in test [1], the “Selectivity Index (SI) HCT-116” value is given as 5.5. For the same compound, the “Selectivity Index (SI) MCF-7” value in test [2] amounted to 3.9. In addition, the “Selectivity Index (SI) HeLa” value in test [3] amounted to 3.0.
In the case of `Cc1cc(S(=O)(=O)N=C2NCCN2Cc2ccc(F)cc2)c(SCc2nc(N)nc(N3CCc4ccccc43)n2)cc1Cl` [Compound 83], the IC50 was found to be 10 ± 0.5 µM in test [1] (Homo sapiens, HCT-116, 72 h); 14 ± 1 µM in test [2]; 12 ± 3 µM in test [3]; 32 ± 1 µM in test [4].
The matching figures for `Cc1cc(S(=O)(=O)N=C2NCCN2Cc2ccccc2)c(SCc2nc(N)nc(N3CCN(c4cccc(Cl)c4)CC3)n2)cc1Cl` [Compound 63]: 7 ± 0.1 µM, 9 ± 0.5 µM, 12 ± 0.5 µM and 24 ± 1 µM.
As for `Cc1cc(S(=O)(=O)N=C2NCCN2Cc2ccccc2)c(SCc2nc(N)nc(Nc3ccc(C(F)(F)F)cc3)n2)cc1Cl` [Compound 51], the IC50 in test [1] (Homo sapiens, HCT-116, 72 h) came out at 19 ± 0.6 µM; in test [2] it was 10 ± 0.5 µM; in test [3], 15 ± 1 µM; in test [4], 220 ± 12 µM.
Take `Cc1cc(S(=O)(=O)N=C2NCCN2Cc2cccc(C(F)(F)F)c2)c(SCc2nc(N)nc(N3CCN(c4ccc(Cl)c(Cl)c4)CC3)n2)cc1Cl` [Compound 115]: the IC50 in test [1] (Homo sapiens, HCT-116, 72 h) is 5.5 ± 0.2 µM; in test [2], 6.5 ± 0.2 µM; in test [3], 12 ± 1 µM; in test [4], 23 ± 0.5 µM.
The matching figures for `Cc1cc(S(=O)(=O)N=C2NCCN2Cc2ccccc2)c(SCc2nc(N)nc(N3CCC(Cc4ccccc4)CC3)n2)cc1Cl` [Compound 72]: 6.5 ± 0.1 µM, 9 ± 0.5 µM, 17 ± 0.5 µM and 28 ± 1 µM.
The like results for `Cc1cc(S(=O)(=O)N=C2NCCN2Cc2ccccc2)c(SCc2nc(N)nc(N3CCN(c4ccccc4F)CC3)n2)cc1Cl` [Compound 59] were, in that order, 13 ± 0.3 µM, 18 ± 1 µM, 15 ± 1 µM and 30 ± 1 µM.
On to `Cc1cc(S(=O)(=O)N=C2NCCN2Cc2cc(C(F)(F)F)cc(C(F)(F)F)c2)c(SCc2nc(N)nc(N3CCN(c4ccccc4)CC3)n2)cc1Cl` [Compound 150], for which the IC50 in test [1] (Homo sapiens, HCT-116, 72 h) is less than 6 µM; in test [1], 3.6 ± 0.2 µM; in test [2], 4.5 ± 0.2 µM; in test [3], 11 ± 0.3 µM; in test [4], 23 ± 1 µM. The “Selectivity Index (SI) HCT-116” value in test [1] is listed as 6.4. Also, in test [2], the “Selectivity Index (SI) MCF-7” value stood at 5.1. Further, the “Selectivity Index (SI) HeLa” value in test [3] is reported as 2.0.
Take `Cc1cc(S(=O)(=O)N=C2NCCN2Cc2cc(C(F)(F)F)cc(C(F)(F)F)c2)c(SCc2nc(N)nc(N3CCN(c4cccc(C(F)(F)F)c4)CC3)n2)cc1Cl` [Compound 153]: the IC50 worked out at 6 ± 0.3 µM in test [1] (Homo sapiens, HCT-116, 72 h); 8 ± 0.2 µM in test [2]; 9 ± 0.5 µM in test [3]; 19 ± 0.5 µM in test [4].
The matching figures for `Cc1cc(S(=O)(=O)N=C2NCCN2)c(SCc2nc(N)nc(N3CCCc4ccccc43)n2)cc1Cl` [Compound 24]: 20 ± 0.4 µM, 27 ± 0.3 µM, 22 ± 0.2 µM and 41 ± 1 µM.
Turning to `COc1ccccc1N1CCN(c2nc(N)nc(CSc3cc(Cl)c(C)cc3S(=O)(=O)N=C3NCCN3Cc3ccccc3)n2)CC1` [Compound 66], the IC50 is 12 ± 0.4 µM in test [1] (Homo sapiens, HCT-116, 72 h); 29 ± 1 µM in test [2]; 20 ± 1 µM in test [3]; 36 ± 2 µM in test [4].
The like results for `Cc1cc(S(=O)(=O)N=C2NCCN2Cc2cc(C(F)(F)F)cc(C(F)(F)F)c2)c(SCc2nc(N)nc(N3CCN(c4ccccc4F)CC3)n2)cc1Cl` [Compound 152] were, in that order, 6.5 ± 0.3 µM, 6.5 ± 0.3 µM, 15.5 ± 1 µM and 29 ± 1 µM.
The matching figures for `Cc1cc(S(=O)(=O)N=C2NCCN2Cc2cc(C(F)(F)F)cc(C(F)(F)F)c2)c(SCc2nc(N)nc(N3CCN(Cc4ccccc4)CC3)n2)cc1Cl` [Compound 156]: 4.8 ± 0.1 µM, 7.5 ± 0.4 µM, 5.5 ± 0.2 µM and 17 ± 1 µM.
The like results for `Cc1cc(S(=O)(=O)N=C2NCCN2Cc2ccc(C(F)(F)F)cc2)c(SCc2nc(N)nc(N(C)c3ccc(Cl)cc3)n2)cc1Cl` [Compound 129] were, in that order, 11 ± 0.1 µM, 14 ± 0.5 µM, 15 ± 1 µM and 31 ± 1 µM.
With `Cc1cc(S(=O)(=O)N=C2NCCN2Cc2ccc(Br)cc2)c(SCc2nc(N)nc(N3CCN(c4ccc(F)cc4)CC3)n2)cc1Cl` [Compound 107], the half-inhibitory concentration (IC50) in test [1] (Homo sapiens, HCT-116, 72 h) turned out to be 8.5 ± 0.3 µM; in test [2], 7 ± 0.2 µM; in test [3], 58 ± 2 µM; in test [4], 76 ± 4 µM.
With `Cc1cc(S(=O)(=O)N=C2NCCN2Cc2cccc(C(F)(F)F)c2)c(SCc2nc(N)nc(N3CCN(c4ccc(C(F)(F)F)cc4)CC3)n2)cc1Cl` [Compound 114], the IC50 in test [1] (Homo sapiens, HCT-116, 72 h) was determined as 5 ± 0.2 µM; in test [2] it was 6.5 ± 0.3 µM; in test [3] it was 12 ± 0.3 µM; in test [4], 27 ± 1 µM. Further, the “Selectivity Index (SI) HCT-116” value in test [1] was 5.4. Besides, the “Selectivity Index (SI) MCF-7” value in test [2] is 4.1. In addition, the “Selectivity Index (SI) HeLa” value in test [3] was found to be 2.2.

The values are drawn from publication PMC9267128, “New 2-[(4-Amino-6-N-substituted-1,3,5-triazin-2-yl)methylthio]-N-(imidazolidin-2-ylidene)-4-chloro-5-methylbenzenesulfonamide Derivatives, Design, Synthesis and Anticancer Evaluation” (International Journal of Molecular Sciences, 2022).
